# Experimental data as given in patent US11230545B2, “Heterocyclic compound” (Takeda Pharmaceutical Company Limited, priority 2018, dated 2022).
# Tests used:
# OCI-Ly3 cells = assay: Measurement of growth inhibitory activity using OCI-Ly3 cells; assay type: cell-based; settings: Homo sapiens, 144 h, 3 μm compound, 6 days, read-out: Cell growth inhibition rate (%) at 3 μm compound
# Method: OCI-Ly3 cells were seeded in a cell culture medium IMDM (Fujifilm Wako Pure Chemical Corporation) containing 20% FCS (fetal calf serum, Thermo Fisher Scientific) and monothioglycerol (Fujifilm Wako Pure Chemical Corporation) so as to be at 1.25×10^3 cells/well on a 96-well plate. Cell Titer-Glo solution (Promega) was added to cells to which the test compound had not been added, followed by stirring at room temperature for 15 minutes. Subsequently, the luminescence value was measured with Envision (PerkinElmer) on the day of seeding. Cells to which the test compound dissolved in dimethyl sulfoxide (Fujifilm Wako Pure Chemical Corporation) had been added were allowed to stand in a CO2 incubator (37° C.) for 6 days. Subsequently, the luminescence value was measured in the same manner. The inhibition rate (%) of the test compound on OCI-Ly3 cell growth was calculated by the following formula. Cell growth inhibition rate (%)=(1−(Luminescent value on day 6 of test compound treatment−Luminescent value before test compound treatment)/(Luminescent value on day 6 without compound addition−Luminescent value before compound treatment))×100
# recombinant human MALT1 = target: T1, recombinant human MALT1 (Homo sapiens, UniProt Q9UDY8); assay: Measurement of MALT1 enzyme inhibitory activity; assay type: biochemical; settings: read-out: MALT1 enzyme inhibition rate (%) at 3 μM compound
# T1 construct: to form a human MALT1 (340-789aa) dimer; His tag (from pET28a, N-terminal) (N); yeast GCN4 leucine zipper (251-281aa), fusion partner for dimerisation (N); translates to GSGSGS), between GCN4 zipper and MALT1 (N); His tag (C-terminal) (C); made in house; host or cells: E. coli BL21 (DE3)
# T1 sequence (Q9UDY8 340-789): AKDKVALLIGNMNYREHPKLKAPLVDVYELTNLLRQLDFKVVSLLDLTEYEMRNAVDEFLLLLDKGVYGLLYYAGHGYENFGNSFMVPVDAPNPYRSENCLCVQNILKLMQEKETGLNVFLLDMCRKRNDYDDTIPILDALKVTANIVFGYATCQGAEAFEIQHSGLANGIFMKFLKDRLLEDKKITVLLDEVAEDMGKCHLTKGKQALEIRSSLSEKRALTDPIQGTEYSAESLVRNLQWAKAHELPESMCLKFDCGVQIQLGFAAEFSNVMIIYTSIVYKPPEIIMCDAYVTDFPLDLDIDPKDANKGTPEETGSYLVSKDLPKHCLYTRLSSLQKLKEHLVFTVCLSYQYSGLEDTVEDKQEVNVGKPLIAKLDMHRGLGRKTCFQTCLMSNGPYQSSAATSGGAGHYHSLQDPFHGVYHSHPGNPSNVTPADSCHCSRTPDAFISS
# T1 sequence (P03069 251-281 partner limits assumed): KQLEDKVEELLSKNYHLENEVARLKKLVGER
# Method: On the human MALT1 gene, PCR was carried out using GC-030-[…] (pENTR221/MALT1, GeneCopoeia) as a template with primers having BamH I restriction enzyme at the N-terminal and Not I restriction enzyme at the C-terminal to form a human MALT1 (340-789aa) dimer. […] Both of the obtained fragments were treated with the restriction enzymes, and inserted between Nde I and Not I of a pET28a (Novagen) vector to yield a recombinant human MALT1 protein expression vector pET28a/His-LZ-hMALT1v1 (340-789)-His. The recombinant human MALT1 protein was prepared by transforming the expression plasmid prepared as above with ECOS Competent E. coli BL21 (DE3) (Nippon Gene Co., Ltd.). Escherichia coli obtained by transformation was inoculated into 300 mL of LB medium (1% tryptone, 0.5% yeast extract, 0.5% sodium chloride, 0.01% ampicillin) and cultured at 30° C. for 16 hours. […] Furthermore, culturing was carried out for 16 hours to induce expression of human MALT1 protein. After completion of the culture, the culture solution was centrifuged at 5,000 rpm for 10 minutes. […] This crushed liquid was centrifuged (15,300×G, 30 min, TOMY MX-301), and the obtained supernatant was passed through and adsorbed to a Ni-NTA Superflow (QIAGEN) column previously equilibrated with 50 mM Tris-HCl pH 8.0, 300 mM NaCl, 5 mM DTT and 10% glycerol, followed by elution in a buffer containing 50 mM Tris-HCl pH 8.0, 300 mM NaCl, 5 mM DTT, 10% glycerol and 250 mM imidazole. […] The prepared protein was stored at -30° C., and the protein concentration was measured with a BCA Protein Assay Kit (PIERCE) using BSA as a standard. […] Subsequently, 2 μL of a purified recombinant human MALT1 enzyme solution was added, followed by incubation for 60 minutes at room temperature. To the mixture were added 2 μL of a substrate solution (75 μM Ac-LRSR-AFC (SM Biochemicals), 20 mM HEPES (Dojin Laboratories), 10 mM KCl (Wako Pure Chemical Industries, Ltd.), 1.5 mM MgCl2 (Sigma-Aldrich), 1 mM EDTA (pH 8.0) (Nippon Gene Co., Ltd.), 0.01% Triton X-100 (Sigma-Aldrich) and 1 mM DTT (Wako Pure Chemical Industries, Ltd.), followed by incubation for 60 minutes at room temperature. The fluorescence values of excitation 400 nm and emission 485 nm immediately after substrate addition and after enzymatic reaction were measured with a plate reader Envision (PerkinElmer), and the fluorescence values increased by enzymatic reaction were used for calculation of the inhibition rate (%).
Compound,inhibition at 3 µM (OCI-Ly3 cells) [%],inhibition at 3 µM (recombinant human MALT1) [%]
"COC(C)(C)c1c(NC(=O)Nc2cnc(-n3nccn3)c(Cl)c2)cnn2cc(C)nc12 [Example 7, N-(5-Chloro-6-(2H-1,2,3-triazol-2-yl)pyridin-3-yl)-N′-(8-(2-methoxypropan-2-yl)-2-methylimidazo[1,2-b]pyridazin-7-yl)urea]",95,98
"COC(C)c1c(NC(=O)Nc2cnc(OC(F)F)c(Cl)c2)cnc2ccc(Cl)nc12 (stereo not drawn) [Example 59, N-(5-Chloro-6-(difluoromethoxy)pyridin-3-yl)-N′-(6-chloro-4-(1-methoxyethyl)-1,5-naphthyridin-3-yl)urea]",98,95
"CC(C)c1c(NC(=O)Nc2cnc(OC(F)F)c(Cl)c2)cnn2cc(Cl)nc12 [Example 8, N-(5-Chloro-6-(difluoromethoxy)pyridin-3-yl)-N′-(2-chloro-8-(propan-2-yl)imidazo[1,2-b]pyridazin-7-yl)urea]",–,94
"COCc1cnn(-c2ncc(NC(=O)Nc3cnn4cc(C)nc4c3[C@H](C)OC)cc2Cl)n1 [Example 36, (S)-N-[5-Chloro-6-(4-(methoxymethyl)-2H-1,2,3-triazol-2-yl)pyridin-3-yl)-N′-(8-(1-methoxyethyl)-2-methylimidazo[1,2-b]pyridazin-7-yl)urea]",96,101
"CO[C@@H](C)c1c(NC(=O)Nc2cnc(-n3nccn3)c(C(F)F)c2)cnn2cc(C)nc12 [Example 31, (S)-N-(5-(Difluoromethyl)-6-(2H-1,2,3-triazol-2-yl)pyridin-3-yl)-N′-(8-(1-methoxyethyl)-2-methylimidazo[1,2-b]pyridazin-7-yl)urea]",96,103
"CO[C@@H](C)c1c(NC(=O)Nc2cnc(OC(F)F)c(C#N)c2)cnn2cc(C)nc12 [Example 5, (S)—N-(5-Cyano-6-(difluoromethoxy)pyridin-3-yl)-N′-(8-(1-methoxyethyl)-2-methylimidazo[1,2-b]pyridazin-7-yl)urea]",93,99
"COc1nccc2ncc(NC(=O)Nc3cnc(-n4nccn4)c(C(F)(F)F)c3)c(C(C)OC)c12 (stereo not drawn) [Example 255, N-(5-Methoxy-4-(1-methoxyethyl)-1,6-naphthyridin-3-yl)-N'-(6-(2H-1,2,3-triazol-2-yl)-5-(trifluoromethyl)pyridin-3-yl)urea]",99,97
"Cc1cn2ncc(NC(=O)Nc3cnc(-n4nccn4)c(Cl)c3)c(C(C)C)c2n1 [Example 9, N-(5-Chloro-6-(2H-1,2,3-triazol-2-yl)pyridin-3-yl)-N′-(2-methyl-8-(propan-2-yl)imidazo[1,2-b]pyridazin-7-yl)urea]",99,99
"CO[C@@H](C)c1c(NC(=O)Nc2cnc(-n3nccn3)c(C(F)(F)F)c2)cnn2cc(C)nc12 [Example 6, (S)—N-(8-(1-Methoxyethyl)-2-methylimidazo[1,2-b]pyridazin-7-yl)-N′-(6-(2H-1,2,3-triazol-2-yl)-5-(trifluoromethyl)pyridin-3-yl)urea]",99,108
"CO[C@@H](C)c1c(NC(=O)Nc2cc(C(F)(F)F)c(-n3nccn3)nc2C)cnc2ccc(Cl)nc12 [Example 66, (S)-N-(6-Chloro-4-(1-methoxyethyl)-1,5-naphthyridin-3-yl)-N′-(2-methyl-6-(2H-1,2,3-triazol-2-yl)-5-(trifluoromethyl)pyridin-3-yl)urea]",100,99
"COc1ncc(NC(=O)Nc2cnc3ccn(C)c(=O)c3c2C(C)OC)cc1Cl (stereo not drawn) [Example 270, N-(5-Chloro-6-methoxypyridin-3-yl)-N'-(4-(1-methoxyethyl)-6-methyl-5-oxo-5,6-dihydro-1,6-naphthyridin-3-yl)urea]",40,94
"CO[C@@H](C)c1c(NC(=O)Nc2cnc(OC(F)F)c(Br)c2)cnn2cc(C)nc12 [Example 35, (S)-N-(5-Bromo-6-(difluoromethoxy)pyridin-3-yl)-N′-(8-(1-methoxyethyl)-2-methylimidazo[1,2-b]pyridazin-7-yl)urea]",95,105
"CC(c1c(NC(=O)Nc2cnc(OC(F)F)c(Cl)c2)cnn2cc(Cl)nc12)C(F)(F)F (stereo not drawn) [Example 173, N-(5-Chloro-6-(difluoromethoxy)pyridin-3-yl)-N′-(2-chloro-8-(1,1,1-trifluoropropan-2-yl)imidazo[1,2-b]pyridazin-7-yl)urea]",85,99
"CO[C@@H](C)c1c(NC(=O)Nc2cc(C(F)(F)F)c(-n3nccn3)nc2C)cnn2cc(C)nc12 [Example 22, (S)-N-(8-(1-Methoxyethyl)-2-methylimidazo[1,2-b]pyridazin-7-yl)-N′-(2-methyl-6-(2H-1,2,3-triazol-2-yl)-5-(trifluoromethyl)pyridin-3-yl)urea]",102,104
"COC(C)c1c(NC(=O)Nc2cnc(-n3nccn3)c(C(F)(F)F)c2)cnc2ccc(=O)n(C)c12 (stereo not drawn) [Example 269, N-(4-(1-Methoxyethyl)-5-methyl-6-oxo-5,6-dihydro-1,5-naphthyridin-3-yl)-N'-(6-(2H-1,2,3-triazol-2-yl)-5-(trifluoromethyl)pyridin-3-yl)urea]",95,99
"COC(C)c1c(NC(=O)Nc2cnc(-n3nccn3)c(C(F)(F)F)c2)cnc2ccnc(C)c12 (stereo not drawn) [Example 261, N-(4-(1-Methoxyethyl)-5-methyl-1,6-naphthyridin-3-yl)-N'-(6-(2H-1,2,3-triazol-2-yl)-5-(trifluoromethyl)pyridin-3-yl)urea]",88,98
"COC(C)c1c(NC(=O)Nc2cnc(-n3nccn3)c(Cl)c2)cnn2cc(Cl)nc12 (stereo not drawn) [Example 133, N-(2-Chloro-8-(1-methoxyethyl)imidazo[1,2-b]pyridazin-7-yl)-N′-(5-chloro-6-(2H-1,2,3-triazol-2-yl)pyridin-3-yl)urea]",98,99
